What all share (type): cell-based
For one test, the target named is T1, AKT1 E17K (Homo sapiens, UniProt P31749, E17K).
T1 construct: expressed in transfected cells; host or cells: HEK293
Briefly: Live cell AKT1 E17K target engagement by NanoBRET competitive probe displacement. Conditions: HEK293 cells transfected with kinase-NanoLuciferase fusion, 2 h at 37° C. An outline of the steps:
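NanoLuc-kinase fusions, HEK293, transfected overnight; compound serial dilution + ATP-competitive fluorescent tracer at ~EC50; 2 h, 37 °C. Read 460/600 nm with extracellular NanoLuc inhibitor; BRET = E600/E460; IC50 by Hill fit.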

The target in a further test is T2, AKT2 (Homo sapiens, UniProt P31751).
T2 construct: expressed in transfected cells; host or cells: HEK293
The test can be described thus: Live cell AKT2 target engagement by NanoBRET competitive probe displacement. To be noted: HEK293 cells transfected with kinase-NanoLuciferase fusion, 2 h at 37° C. The procedure:
(§1) Determining Live Cell AKT1 E17K, AKT1 WT, and AKT2 Target Engagement by NanoBRET Competitive Probe Displacement.
(§2) Live cell target engagement assays were performed as described (Vasta, J. D. et al. Cell Chem Biol 2018, 25(11), 206-214). Briefly, HEK293 cells were transfected with plasmids encoding kinase-NanoLuciferase fusion proteins overnight. Cells were then treated with serial dilutions of compound and an ˜EC50 concentration of fluorescently-tagged ATP-competitive tracer (Promega). After incubation for 2 h at 37° C., luciferase substrate and extracellular luciferase inhibitor were added to all wells, and luminescent intensity at 460 nm and 600 nm were measured on a multimode plate-reader. The ratio of E600/E460 was calculated to give the tracer engagement signal (BRET). IC50 values were calculated by fitting BRET values to a log(inhibitor) vs. response Hill equation.
On the technique in general: In BRET a luciferase serves as donor, and the signal depends on an acceptor being close.

The test system of test [1] is LAPC4 prostate cancer cells. The test can be described thus: Antiproliferative effects in LAPC4 cells (CellTiter Glo). Conditions: LAPC4 cells (AKT1 E17K allele), read-out: LAPC4 proliferation IC50. An outline of the steps:
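Luminescent ATP read-out (CellTiter Glo) after 72 h compound exposure; 1,000 cells/well in IMDM + 12% FBS + 1% P/S. IC50 by Hill equation fit of luminescence vs. log(inhibitor).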
On the technique in general: Cellular ATP, detected with luciferase, serves as a proxy for viable cell number.

A further test concerns the target T3, AKT1 WT (Homo sapiens, UniProt P31749).
T3 construct: expressed in transfected cells; host or cells: HEK293
Briefly: Live cell AKT1 WT target engagement by NanoBRET competitive probe displacement. Conditions: HEK293 cells transfected with kinase-NanoLuciferase fusion, 2 h at 37° C. As to the method:
as §1, §2

Like-named read-outs stand apart in the source and are kept apart here.

T2 sequence (P31751 whole entry): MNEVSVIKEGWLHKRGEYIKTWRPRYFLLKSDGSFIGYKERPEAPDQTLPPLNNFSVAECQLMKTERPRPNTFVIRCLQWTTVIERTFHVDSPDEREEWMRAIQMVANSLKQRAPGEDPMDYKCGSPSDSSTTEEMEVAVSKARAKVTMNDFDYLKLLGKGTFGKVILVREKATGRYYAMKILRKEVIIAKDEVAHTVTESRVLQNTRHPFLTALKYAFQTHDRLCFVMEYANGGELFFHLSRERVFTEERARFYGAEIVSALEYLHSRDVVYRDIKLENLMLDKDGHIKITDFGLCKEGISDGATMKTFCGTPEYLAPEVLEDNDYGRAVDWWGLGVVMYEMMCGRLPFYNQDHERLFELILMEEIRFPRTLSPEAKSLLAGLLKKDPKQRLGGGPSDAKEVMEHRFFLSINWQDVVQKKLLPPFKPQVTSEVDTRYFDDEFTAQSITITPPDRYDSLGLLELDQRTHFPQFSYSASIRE
T3 sequence (P31749 whole entry): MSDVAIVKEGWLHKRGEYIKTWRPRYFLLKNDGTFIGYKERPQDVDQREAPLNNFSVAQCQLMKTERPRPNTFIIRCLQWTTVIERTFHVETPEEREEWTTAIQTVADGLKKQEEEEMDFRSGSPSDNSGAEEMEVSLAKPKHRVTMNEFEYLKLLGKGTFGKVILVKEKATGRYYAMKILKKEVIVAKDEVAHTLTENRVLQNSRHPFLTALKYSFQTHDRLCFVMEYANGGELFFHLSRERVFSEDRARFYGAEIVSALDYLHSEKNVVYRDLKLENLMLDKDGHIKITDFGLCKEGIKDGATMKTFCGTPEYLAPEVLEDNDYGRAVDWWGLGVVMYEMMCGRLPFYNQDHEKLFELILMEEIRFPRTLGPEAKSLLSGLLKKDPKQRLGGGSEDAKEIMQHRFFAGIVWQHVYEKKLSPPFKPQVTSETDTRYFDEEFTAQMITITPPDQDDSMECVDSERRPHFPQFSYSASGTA
T1 sequence (P31749 whole entry E17K): as the sequence (P31749 whole entry) above, with E17K counted along it

On to `C=CC(=O)N1CCC(N[C@@H]2c3ccc(-n4c(-c5ccccc5F)nc5ccc(-n6cccn6)nc54)cc3CC2F)C[C@H]1C` (single isomer, unassigned) [Example 319, 1-((2R,4*)-4-(((1R,2*)-2-fluoro-5-(2-(2-fluorophenyl)-5-(1H-pyrazol-1-yl)-3H-imidazo[4,5-b]pyridin-3-yl)-2,3-dihydro-1H-inden-1-yl)amino)-2-methylpiperidin-1-yl)prop-2-en-1-one], for which the IC50 on AKT1 E17K came to 49.6 nM; on AKT2, 301 nM; in test [1] (72 h), 1600 nM.

As for `C=CC(=O)N1CCC(N[C@H]2CCc3cc(-n4c(-c5cccnc5N)nc5ccc(-n6ccc(C7(F)CC7)n6)nc54)ccc32)CC1` [Example 323, 1-(4-{[(1S)-5-[2-(2-aminopyridin-3-yl)-5-[3-(1-fluorocyclopropyl)pyrazol-1-yl]imidazo[4,5-b]pyridin-3-yl]-2,3-dihydro-1H-inden-1-yl]amino}piperidin-1-yl)prop-2-en-1-one], the results for the IC50 at AKT1 E17K, on AKT2 and at AKT1 WT were 6.22 nM, 45.3 nM and 263 nM, respectively.

Regarding `C=CC(=O)N1CCC(N[C@H]2CCc3cc(-n4c(-c5cccnc5N)nc5ccc(-n6cccn6)nc54)ccc32)CC1CC#N` (single isomer, unassigned) [Example 326, 2-((2*,4*)-1-acryloyl-4-(((S)-5-(2-(2-aminopyridin-3-yl)-5-(1H-pyrazol-1-yl)-3H-imidazo[4,5-b]pyridin-3-yl)-2,3-dihydro-1H-inden-1-yl)amino)piperidin-2-yl)acetonitrile], the IC50 at AKT1 E17K was 7.25 nM; on AKT2, 29.3 nM; on AKT1 WT, 98.8 nM.

Consider `C=CC(=O)N1CCC(NC2c3ccc(-n4c(-c5cccnc5N)nc5ccc(-n6ccc(C7CC7)n6)nc54)cc3CC2F)CC1C(F)F` (single isomer, unassigned) [Example 335, 1-((2*,4*)-4-(((1*,2*)-5-(2-(2-aminopyridin-3-yl)-5-(3-cyclopropyl-1H-pyrazol-1-yl)-3H-imidazo[4,5-b]pyridin-3-yl)-2-fluoro-2,3-dihydro-1H-inden-1-yl)amino)-2-(difluoromethyl)piperidin-1-yl)prop-2-en-1-one], for which the figures for the IC50 on AKT1 E17K, on AKT2 and at AKT1 WT were 9.48 nM, 28.3 nM and 288 nM, respectively.

As to `C=CC(=O)N1CCC(N[C@@H]2c3ccc(-n4c(-c5ccccc5)nc5ccc(-n6cccn6)nc54)cc3CC2F)CC1` (single isomer, unassigned) [Example 250, 1-(4-(((1R,2*)-2-fluoro-5-(2-phenyl-5-(1H-pyrazol-1-yl)-3H-imidazo[4,5-b]pyridin-3-yl)-2,3-dihydro-1H-inden-1-yl)amino)piperidin-1-yl)prop-2-en-1-one], the IC50 at AKT1 E17K was 14.7 nM; at AKT2, 134 nM; in test [1] (72 h), 559 nM.

As to `C=CC(=O)N1CCC(N[C@@H]2c3ccc(-n4c(-c5ccccc5F)nc5ccc(-n6cccn6)nc54)cc3CC2F)C[C@H]1C` (single isomer, unassigned) [Example 318, 1-((2R,4*)-4-(((1R,2*)-2-fluoro-5-(2-(2-fluorophenyl)-5-(1H-pyrazol-1-yl)-3H-imidazo[4,5-b]pyridin-3-yl)-2,3-dihydro-1H-inden-1-yl)amino)-2-methylpiperidin-1-yl)prop-2-en-1-one], the IC50 at AKT1 E17K was determined as 29.7 nM; on AKT2, 111 nM; in test [1] (72 h), 626 nM.

On to `C=CC(=O)N1CCC(N[C@@H]2c3ccc(-n4c(-c5ccccc5)nc5ccc(-n6cccn6)nc54)cc3CC2F)CC1C(F)F` (single isomer, unassigned) [Example 328, 1-((2*,4*)-2-(difluoromethyl)-4-(((1R,2*)-2-fluoro-5-(2-phenyl-5-(1H-pyrazol-1-yl)-3H-imidazo[4,5-b]pyridin-3-yl)-2,3-dihydro-1H-inden-1-yl)amino)piperidin-1-yl)prop-2-en-1-one], for which the IC50 at AKT1 E17K was 17.7 nM; at AKT2, 90.3 nM.

`C=C(F)C(=O)N1CCC(N[C@H]2CCc3cc(-n4c(-c5cccnc5N)nc5ccc(-n6cccn6)nc54)ccc32)CC1` [Example 46, 1-(4-{[(1S)-5-[2-(2-aminopyridin-3-yl)-5-(pyrazol-1-yl)imidazo[4,5-b]pyridin-3-yl]-2,3-dihydro-1H-inden-1-yl]amino}piperidin-1-yl)-2-fluoroprop-2-en-1-one]: the values for the IC50 on AKT2 and at AKT1 WT were greater than 10000 nM and 726 nM, respectively.

For `C=CC(=O)N1C[C@H]2COC[C@@H](C1)C2N[C@H]1CCc2cc(-n3c(-c4cccnc4N)nc4ccc(C5CC5)nc43)ccc21` (single isomer, unassigned) [Example 172, 1-((1R,5S,9*)-9-(((S)-5-(2-(2-aminopyridin-3-yl)-5-cyclopropyl-3H-imidazo[4,5-b]pyridin-3-yl)-2,3-dihydro-1H-inden-1-yl)amino)-3-oxa-7-azabicyclo[3.3.1]nonan-7-yl)prop-2-en-1-one], the IC50 on AKT1 E17K was 50.9 nM; at AKT2 it was 211 nM; in test [1] (72 h), 510 nM.

As to `C=CC(=O)N1CCC(CC2CCc3cc(-n4c(-c5cccnc5N)nc5ccc(-n6cccn6)nc54)ccc32)CC1` (single isomer, unassigned) [Example 344, 1-(4-(((*)-5-(2-(2-aminopyridin-3-yl)-5-(1H-pyrazol-1-yl)-3H-imidazo[4,5-b]pyridin-3-yl)-2,3-dihydro-1H-inden-1-yl)methyl)piperidin-1-yl)prop-2-en-1-one], the IC50 at AKT1 E17K was determined as 21.4 nM; on AKT2, 549 nM; at AKT1 WT, 418 nM.

Take `C=CC(=O)N1CCC(N[C@@H]2c3ccc(-n4c(-c5ccccc5F)nc5ccc(-n6cccn6)nc54)cc3CC2F)C[C@H]1C` (single isomer, unassigned) [Example 316, 1-((2R,4*)-4-(((1R,2*)-2-fluoro-5-(2-(2-fluorophenyl)-5-(1H-pyrazol-1-yl)-3H-imidazo[4,5-b]pyridin-3-yl)-2,3-dihydro-1H-inden-1-yl)amino)-2-methylpiperidin-1-yl)prop-2-en-1-one]: the figures for the IC50 (at AKT1 E17K; at AKT2; in test [1] (72 h)) were 19.2 nM, 112 nM and 540 nM, respectively.

For `C=CC(=O)N1CCC(N[C@@H]2c3ccc(-n4c(-c5cccnc5N)nc5ccc(-n6ccc(C7CC7)n6)nc54)cc3CC2F)CC1C(F)F` (single isomer, unassigned) [Example 334, 1-((2*,4*)-4-(((1*,2*)-5-(2-(2-aminopyridin-3-yl)-5-(3-cyclopropyl-1H-pyrazol-1-yl)-3H-imidazo[4,5-b]pyridin-3-yl)-2-fluoro-2,3-dihydro-1H-inden-1-yl)amino)-2-(difluoromethyl)piperidin-1-yl)prop-2-en-1-one], the IC50 was 6.75 nM at AKT1 E17K, 23.5 nM at AKT2 and 137 nM at AKT1 WT.

As to `C=CC(=O)N1CCC(N[C@@H]2c3ccc(-n4c(-c5ccccc5)nc5ccc(-c6ccccc6)nc54)cc3CC2F)CC1` (single isomer, unassigned) [Example 324, 1-(4-{[(1R,2*)-5-{2,5-diphenylimidazo[4,5-b]pyridin-3-yl}-2-fluoro-2,3-dihydro-1H-inden-1-yl]amino}piperidin-1-yl)prop-2-en-1-one], the IC50 on AKT1 E17K turned out to be 16.3 nM; on AKT2, 88.1 nM; at AKT1 WT it was 396 nM.

As for `C=CC(=O)N1CCC(N[C@@H]2c3c(F)cc(-n4c(-c5cccnc5N)nc5ccc(-n6cccn6)nc54)cc3CC2F)CC1` (single isomer, unassigned) [Example 342, 1-(4-(((1R,2*)-5-(2-(2-aminopyridin-3-yl)-5-(1H-pyrazol-1-yl)-3H-imidazo[4,5-b]pyridin-3-yl)-2,7-difluoro-2,3-dihydro-1H-inden-1-yl)amino)piperidin-1-yl)prop-2-en-1-one], the IC50 at AKT1 E17K was found to be 23.9 nM; on AKT2, 194 nM.

On to `C=CC(=O)N1CCC(N[C@@H]2c3ccc(-n4c(-c5ccccc5)nc5ccc(-n6cccn6)nc54)cc3CC2F)CC1` (single isomer, unassigned) [Example 249, 1-(4-(((1R,2*)-2-fluoro-5-(2-phenyl-5-(1H-pyrazol-1-yl)-3H-imidazo[4,5-b]pyridin-3-yl)-2,3-dihydro-1H-inden-1-yl)amino)piperidin-1-yl)prop-2-en-1-one], for which the IC50 was found to be 12.6 nM on AKT1 E17K; 143 nM on AKT2; 614 nM in test [1] (Homo sapiens, LAPC4, 72 h).

For `C=CC(=O)N1CCC(N[C@@H]2c3ccc(-n4c(-c5cccnc5N)nc5ccc(C6CC6)nc54)cc3CC2F)CC1` (single isomer, unassigned) [Example 203, 1-(4-(((1R,2*)-5-(2-(2-aminopyridin-3-yl)-5-cyclopropyl-3H-imidazo[4,5-b]pyridin-3-yl)-2-fluoro-2,3-dihydro-1H-inden-1-yl)amino)piperidin-1-yl)prop-2-en-1-one], the IC50 at AKT1 E17K amounted to 32.2 nM; at AKT2, 874 nM; in test [1] (72 h) it was 1760 nM.
